Molecules are shown by their SMILES.

The target of the assay is T1, human FOXO1 (constitutively active form Thr24Ala, Ser256Ala, Ser319Ala) (Homo sapiens, UniProt Q12778, S256A/S319A/T24A).
T1 construct: expressed in transfected cells; host or cells: HEK293 cells transfected with pcDNA3.1 plasmid
Description: FOXO1 inhibitor activity assay: cell-based transcriptional (luciferase) reporter assay in HEK293 cells. To be noted: HEK293 cells transfected with insulin response element firefly luciferase reporter, FOXO1 and Renilla luciferase; 10-point dose response 50 μM to 2.5 nM; 24 hours. In outline:
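IC50 and maximal inhibition were fitted by 4-parameter logistic regression on normalized firefly/Renilla luciferase ratios. The 0% reference used RFP in place of FOXO1, and the 100% reference was DMSO-only with all plasmids.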
In general terms: In a reporter assay the amount or activity of a reporter protein is the signal.

T1 sequence (Q12778 whole entry T24A/S256A/S319A): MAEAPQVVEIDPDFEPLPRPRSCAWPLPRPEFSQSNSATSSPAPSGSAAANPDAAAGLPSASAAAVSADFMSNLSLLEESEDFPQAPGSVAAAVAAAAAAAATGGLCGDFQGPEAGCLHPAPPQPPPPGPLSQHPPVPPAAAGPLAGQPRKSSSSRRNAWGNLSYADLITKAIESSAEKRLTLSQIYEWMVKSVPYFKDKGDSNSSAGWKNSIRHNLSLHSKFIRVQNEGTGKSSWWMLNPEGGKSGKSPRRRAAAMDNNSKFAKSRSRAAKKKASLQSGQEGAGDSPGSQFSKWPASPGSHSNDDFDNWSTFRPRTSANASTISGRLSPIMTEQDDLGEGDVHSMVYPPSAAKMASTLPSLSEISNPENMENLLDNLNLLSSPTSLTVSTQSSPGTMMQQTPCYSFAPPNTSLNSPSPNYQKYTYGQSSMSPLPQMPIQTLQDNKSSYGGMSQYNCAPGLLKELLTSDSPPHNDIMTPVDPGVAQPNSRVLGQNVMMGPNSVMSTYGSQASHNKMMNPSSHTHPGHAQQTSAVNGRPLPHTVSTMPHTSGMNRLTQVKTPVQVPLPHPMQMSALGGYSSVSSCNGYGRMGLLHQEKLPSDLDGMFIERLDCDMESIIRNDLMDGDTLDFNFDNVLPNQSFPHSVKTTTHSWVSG

`Cn1nc(NC(=O)c2ccc(N3CCC(N4CCOCC4)CC3)nc2)cc1-c1nc2ccccc2[nH]1` [Compound A-208, N-[5-(1H-benzimidazol-2-yl)-1-methyl-pyrazol-3-yl]-6-(4-morpholino-1-piperidyl)pyridine-3-carboxamide] yielded an IC50 of 100 to 300 nM.

For `CN1CCN(c2ccc(C(=O)Nc3cc(-c4nc5ccccc5[nH]4)n(C)n3)cn2)CC1` [Compound A-209, N-[5-(1H-benzimidazol-2-yl)-1-methyl-pyrazol-3-yl]-6-(4-methyl-piperazin-1-yl)pyridine-3-carboxamide], the IC50 is < 100 nM. In the case of `Cn1nc(NC(=O)c2ccc(N3CCOCC3)nc2)cc1-c1nc2ccccc2[nH]1` [Compound A-210, N-[5-(1H-benzimidazol-2-yl)-1-methyl-pyrazol-3-yl]-6-morpholino-pyridine-3-carboxamide] it was < 100 nM; in that of `COc1cc(F)c2[nH]c(-c3cc(NC(=O)c4ccc(N5CCN(CCO)CC5)nc4)nn3C)nc2c1` [Compound A-211, N-[5-(7-fluoro-5-methoxy-1H-benzimidazol-2-yl)-1-methyl-pyrazol-3-yl]-6-[4-(2-hydroxyethyl)piperazin-1-yl]pyridine-3-carboxamide], 100 to 300 nM; in that of `CN1CCN(c2ccc(C(=O)Nc3cc(-c4nc5ccccc5[nH]4)n(C)n3)cc2)CC1` [Compound A-212, N-[5-(1H-benzimidazol-2-yl)-1-methyl-pyrazol-3-yl]-4-(4-methyl-piperazin-1-yl)benzamide], < 100 nM. The figure for `Cn1nc(NC(=O)c2ccc(N3CCN(CCO)CC3)cc2)cc1-c1nc2ccccc2[nH]1` [Compound A-213, N-[5-(1H-benzimidazol-2-yl)-1-methyl-pyrazol-3-yl]-4-[4-(2-hydroxy-ethyl)piperazin-1-yl]benzamide] is 100 to 300 nM.

Consider `COc1cc(F)c2[nH]c(-c3cc(NC(=O)c4ccc(N5CCN(C6COC6)CC5)nc4)nn3C)nc2c1` [Compound A-214, N-[5-(7-fluoro-5-methoxy-1H-benzimidazol-2-yl)-1-methyl-pyrazol-3-yl]-6-[4-(oxetan-3-yl)piperazin-1-yl]pyridine-3-carboxamide], for which the 50% inhibitory concentration (IC50) was < 100 nM.

Take `Cn1nc(NC(=O)c2ccc(N3CCN(C4COC4)CC3)cc2)cc1-c1nc2ccccc2[nH]1` [Compound A-215, N-[5-(1H-benzimidazol-2-yl)-1-methyl-pyrazol-3-yl]-4-[4-(oxetan-3-yl)piperazin-1-yl]benzamide]: the IC50 lay within 100 to 300 nM.

`Cn1nc(NC(=O)c2ccc(N3CCNCC3)nc2)cc1-c1nc2ccccc2[nH]1` [Compound A-216, N-[5-(1H-benzimidazol-2-yl)-1-methyl-pyrazol-3-yl]-6-piperazin-1-yl-pyridine-3-carboxamide] came in with an IC50 of 100 to 300 nM. In the case of `Cn1nc(NC(=O)c2ccc(N3CCNCC3)cc2)cc1-c1nc2ccccc2[nH]1` [Compound A-217, N-[5-(1H-benzimidazol-2-yl)-1-methyl-pyrazol-3-yl]-4-piperazin-1-yl-benzamide] it was 100 to 300 nM.

As for `O=C(Nc1cc(-c2nc3ccccc3[nH]2)[nH]n1)c1ccc(N2CCNCC2)nc1` [Compound A-218, N-[5-(1H-benzimidazol-2-yl)-1H-pyrazol-3-yl]-6-piperazin-1-yl-pyridine-3-carboxamide], the IC50 lay in the range of 100 to 300 nM.

In the case of `COc1cc(F)c2[nH]c(-c3cc(NC(=O)c4ccc(N5CCN(C6COC6)CC5)cc4)nn3C)nc2c1` [Compound A-219, N-[5-(7-fluoro-5-methoxy-1H-benzimidazol-2-yl)-1-methyl-pyrazol-3-yl]-4-[4-(oxetan-3-yl)piperazin-1-yl]benzamide], the IC50 was < 100 nM.

Take `O=C(Nc1cc(-c2nc3ccccc3[nH]2)[nH]n1)c1ccc(N2CCN(C3COC3)CC2)cc1` [Compound A-220, N-[5-(1H-benzimidazol-2-yl)-1H-pyrazol-3-yl]-4-[4-(oxetan-3-yl)piperazin-1-yl]benzamide]: the IC50 was < 100 nM. In turn, `Cn1nc(NC(=O)c2ccc(N3CCNC(=O)C3)nc2)cc1-c1nc2ccccc2[nH]1` [Compound A-221, N-[5-(1H-benzimidazol-2-yl)-1-methyl-pyrazol-3-yl]-6-(3-oxopiperazin-1-yl)pyridine-3-carboxamide] showed an IC50 of 300 to 1000 nM. In the case of `COc1cc(F)c2[nH]c(-c3cc(NC(=O)c4ccc(N5CCN(CCO)CC5)cc4)nn3C)nc2c1` [Compound A-222, N-[5-(7-fluoro-5-methoxy-1H-benzimidazol-2-yl)-1-methyl-pyrazol-3-yl]-4-[4-(2-hydroxyethyl)piperazin-1-yl]benzamide] it was < 100 nM; in that of `Cn1nc(NC(=O)c2ccc(OCCO)c(C(F)(F)F)c2)cc1-c1nc2ccccc2[nH]1` [Compound A-223, N-[5-(1H-benzimidazol-2-yl)-1-methyl-pyrazol-3-yl]-4-(2-hydroxyethoxy)-3-(trifluoromethyl)benzamide], < 100 nM.

Take `Cn1nc(NC(=O)c2ccc(N3CCOC(CO)C3)nc2)cc1-c1nc2ccccc2[nH]1` (stereo not drawn) [Compound A-224, N-[5-(1H-benzimidazol-2-yl)-1-methyl-pyrazol-3-yl]-6-[2-(hydroxy-methyl)morpholin-4-yl]pyridine-3-carboxamide]: the IC50 lay within 100 to 300 nM. The compound `Cn1nc(NC(=O)c2ccc(N3CC[C@@H](O)C3)nc2)cc1-c1nc2ccccc2[nH]1` [Compound A-225, N-[5-(1H-benzimidazol-2-yl)-1-methyl-pyrazol-3-yl]-6-[(3R)-3-hydroxy-pyrrolidin-1-yl]pyridine-3-carboxamide] registered a half-maximal inhibitory concentration (IC50) of 300 to 1000 nM. In turn, `CC(=O)N1CCN(c2ccc(C(=O)Nc3cc(-c4nc5ccccc5[nH]4)n(C)n3)cn2)CC1` [Compound A-226, 6-(4-acetylpiperazin-1-yl)-N-[5-(1H-benzimidazol-2-yl)-1-methyl-pyrazol-3-yl]pyridine-3-carboxamide] gave a half-inhibitory concentration (IC50) of 100 to 300 nM. In the case of `Cn1nc(NC(=O)c2ccc(N3CCN4C(=O)CCC4C3)nc2)cc1-c1nc2ccccc2[nH]1` (stereo not drawn) [Compound A-228, N-[5-(1H-benzimidazol-2-yl)-1-methyl-pyrazol-3-yl]-6-(6-oxo-1,3,4,7,8,8a-hexahydropyrrolo[1,2-a]pyrazin-2-yl)pyridine-3-carboxamide] it was 100 to 300 nM; in that of `C[C@@H]1COCCN1c1ccc(C(=O)Nc2cc(-c3nc4ccccc4[nH]3)n(C)n2)cn1` [Compound A-229, N-[5-(1H-benzimidazol-2-yl)-1-methyl-pyrazol-3-yl]-6-[(3R)-3-methylmorpholin-4-yl]pyridine-3-carboxamide], 100 to 300 nM. In the case of `C[C@H]1COCCN1c1ccc(C(=O)Nc2cc(-c3nc4ccccc4[nH]3)n(C)n2)cn1` [Compound A-230, N-[5-(1H-benzimidazol-2-yl)-1-methyl-pyrazol-3-yl] -6-[(3S)-3-methylmorpholin-4-yl]pyridine-3-carboxamide] it was 100 to 300 nM; in that of `Cc1cc(N2CCOCC2)ncc1C(=O)Nc1cc(-c2nc3ccccc3[nH]2)n(C)n1` [Compound A-232, N-[5-(1H-benzimidazol-2-yl)-1-methyl-pyrazol-3-yl]-4-methyl-6-morpholino-pyridine-3-carboxamide], > 1000 nM; in that of `CC(=O)N1CCN(c2ccc(C(=O)Nc3cc(-c4nc5ccccc5[nH]4)[nH]n3)cn2)CC1` [Compound A-233], 300 to 1000 nM.

A word on the IC50: it is the concentration that gives 50% inhibition. A high value points to weaker potency.

The record behind these values is patent US20230416228A1 (Forkhead Biotherapeutics, Inc., priority 2020, published 2023).
